These results are taken from patent US20100143937A1 (priority 2007, published 2010).

This experiment deals with T1, NAPE-PLD (Homo sapiens, UniProt Q6IQ20).
T1 construct: made in house; host or cells: baculovirus/insect cells, pDEST8.1 vector; purified by metal chelating chromatography
T1 sequence (Q6IQ20 with tags, fused parts or gaps): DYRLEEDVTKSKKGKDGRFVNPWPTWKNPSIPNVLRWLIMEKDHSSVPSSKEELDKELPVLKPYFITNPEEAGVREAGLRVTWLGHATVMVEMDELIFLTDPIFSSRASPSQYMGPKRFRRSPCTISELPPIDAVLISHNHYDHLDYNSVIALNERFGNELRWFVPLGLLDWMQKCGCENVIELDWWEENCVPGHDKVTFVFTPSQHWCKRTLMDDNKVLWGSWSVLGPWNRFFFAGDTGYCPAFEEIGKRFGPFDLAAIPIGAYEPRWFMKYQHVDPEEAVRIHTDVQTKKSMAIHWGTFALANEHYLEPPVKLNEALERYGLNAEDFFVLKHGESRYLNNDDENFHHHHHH
Kind of experiment: NAPE-PLD PED6 fluorescence assay, Km determination. In kind it is biochemical. Particulars: substrate PED6 with NAPE-PLD; FIG. 8. Here is the method:
General assay conditions use the following final concentrations of the following material: NAPE-PLD at 14 nM, PED6 (substrate) at 10 μM, test compounds at 10 μM, DMSO at 1%. PED6 is purchased (see Table 1) as a lyophilized powder and stored at −20° C. A fresh substrate solution should be prepared daily. 1 mg of PED6 is dissolved in 0.88 ml of ethyl acetate and diluted into 43.12 ml assay buffer to make is a 20 μM working solution. PED6 must be kept out of direct light, as it is light sensitive.
Test compounds are diluted in an appropriate buffer. A non-limiting example is 50 mM Tris-HCl, pH 8.0, the buffer may contain DMSO, for instance, 10% DMSO. Assay buffer was 50 mM Tris-HCl, pH 8.0, 0.05% Triton X-100 and stop solution is 0.4 M HCl, 0.05% Triton X-100.
Order of addition of reagents and equipment used: • 1) Dilute enzyme (NAPE-PLD, 22 μM) to 28 nM in assay buffer. • 2) Prepare substrate (20 μM in assay buffer). • 3) Add 10 μl NAPE-PLD to assay plate using FLEXDROP. • 4) Add 2 μl compound (from compound plate) to appropriate wells of assay plate using Cy-Bio. • 5) Incubate plates, covered, at room temperature for 30 minutes (compound preincubation). • 6) Add 10 μl PED6 to assay plate using FLEXDROP. • 7) Incubate plates, covered, at room temperature for 30 minutes (enzyme reaction) • 8) Terminate the reaction by adding 20 μl of stop solution, using FLEXDROP • 9) Read on LJL Acquest. […]

One may read the Km as the concentration of substrate that gives half-maximal velocity. For the molecule `CCCCCCCCCCCCCCCC(=O)OC[C@H](COP(=O)(O)OCCNC(=O)CCCCCNc1ccc([N+](=O)[O-])cc1[N+](=O)[O-])OC(=O)CCCCC1=[N+]2C(=Cc3c(C)cc(C)n3[B-]2(F)F)C=C1` [PED6], the Km came out at 3.9 µM.
